According to patent US10285983B2, “3-(1H-pyrrolo[2,3-B]pyridin-2-yl)-1H-pyrazolo[3,4-B] pyridines and therapeutic uses thereof” (Samumed, LLC, priority 2015, dated 2019):

Experiments:
Type in all cases: cell-based
[1] = test system: primary human fibroblasts derived from IPF patients (LL29 cells); assay: Inhibition of fibrotic process, αSMA staining in TGF-β1 treated LL29 fibroblasts; settings: Fibroblast, 96 h, TGF-β1 20 ng/mL, 4 days; for EC50: % αSMA positive cells; for inhibition at 10 µM: given for EC50 >10 μM, read-out: percent inhibition at 10 μM
Summary of the method: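 IPF-patient LL29 lung fibroblasts in 1% FBS medium received compound (11-point, 1:2 dilution, 0.1% DMSO) plus TGF-β1 20 ng/mL, 4 days at 37 °C. Percent αSMA-positive cells among SYTOX-negative cells quantified by immunofluorescence imaging, normalized to TGF-β1/DMSO wells. EC50 by non-linear regression on triplicates; above 10 μM, % inhibition at 10 μM given.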

[2] = test system: Wnt activity (Sp5-Luc reporter, SW480 colon carcinoma cells); assay: Wnt activity screening assay, Sp5-Luc reporter gene in SW480 cells; settings: Homo sapiens; for inhibition at 10 µM: given for EC50 >10 μM, read-out: percent inhibition at 10 μM; for EC50: overnight incubation
Summary of the method: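 SW480 colon carcinoma cells stably expressing firefly luciferase under a human Sp5 promoter (eight TCF/LEF sites), plated in 1% FBS medium. 10-point 1:3 dilutions from 10 μM, 0.1% DMSO final, overnight at 37 °C; luminescence normalized to DMSO, four-parameter fit for EC50, % inhibition at 10 μM if EC50 >10 μM.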

SW480 colon cancer cells = assay: Cell viability assay (CellTiter-Blue); settings: Homo sapiens, 96 h, four days; for inhibition at 10 µM: given for EC50 >10 μM, read-out: percent inhibition at 10 μM
Summary of the method: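 SW480 cells (~2×10^3 per well) were exposed to compound for four days at 37 °C/5% CO2, using 8-point 1:3 dilutions from 10 μM to 0.0045 μM in duplicate. Viability was read by resazurin reduction (CellTiter-Blue, ~3 h, Ex 560/Em 590 nm). EC50 came from non-linear regression; above 10 μM, percent inhibition at 10 μM is given.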

Row | SMILES | EC50 [2] [µM] | EC50 (SW480 colon cancer cells) [µM] | EC50 [1] [µM] | inhibition at 10 µM [2] [%] | inhibition at 10 µM (SW480 colon cancer cells) [%] | inhibition at 10 µM [1] [%]
1 | c1ccc(-c2cnc3[nH]nc(-c4cc5c(-c6ccncc6)ccnc5[nH]4)c3c2)nc1 [Compound 140, 5-(Pyridin-2-yl)-3-(4-(pyridin-4-yl)-1H-pyrrolo[2,3-b]pyridin-2-yl)-1H-pyrazolo[3,4-b]pyridine] | > 10 | > 10 | > 10 | 12.3 | 20.2 | 24.5
2 | Cn1cc(-c2cnc3[nH]nc(-c4cc5cccnc5[nH]4)c3c2)cn1 [Compound 652, 5-(1-Methyl-1H-pyrazol-4-yl)-3-(1H-pyrrolo[2,3-b]pyridin-2-yl)-1H-pyrazolo[3,4-b]pyridine] | > 10 | > 10 | 0.23 | 23.4 | 9.2 | –

Continued, in another order:

Row | EC50 [2] [µM] | EC50 (SW480 colon cancer cells) [µM] | SMILES | EC50 [1] [µM] | inhibition at 10 µM [2] [%] | inhibition at 10 µM (SW480 colon cancer cells) [%] | inhibition at 10 µM [1] [%]
3 | > 10 | > 10 | CN(C)c1cncc(-c2cnc3[nH]nc(-c4cc5c(-c6cccs6)ccnc5[nH]4)c3c2)c1 [Compound 343, N,N-Dimethyl-5-(3-(4-(thiophen-2-yl)-1H-pyrrolo[2,3-b]pyridin-2-yl)-1H-pyrazolo[3,4-b]pyridin-5-yl)pyridin-3-amine] | 1.75 | 18.3 | 36.8 | –
4 | > 10 | > 10 | O=C(Nc1cncc(-c2cnc3[nH]nc(-c4cc5c(-c6cccnc6)ccnc5[nH]4)c3c2)c1)C1CC1 [Compound 104, N-(5-(3-(4-(Pyridin-3-yl)-1H-pyrrolo[2,3-b]pyridin-2-yl)-1H-pyrazolo[3,4-b]pyridin-5-yl)pyridin-3-yl)cyclopropanecarboxamide] | > 10 | 0 | 10.4 | 19.6
5 | > 10 | > 10 | c1cncc(-c2cnc3[nH]nc(-c4cc5c(-c6cccnc6)ccnc5[nH]4)c3c2)c1 [Compound 88, 5-(Pyridin-3-yl)-3-(4-(pyridin-3-yl)-1H-pyrrolo[2,3-b]pyridin-2-yl)-1H-pyrazolo[3,4-b]pyridine] | > 10 | 17 | 10.8 | 0
